Test results as given in article PMC8301768, “Cloning and Characterization of Aedes aegypti Trypsin Modulating Oostatic Factor (TMOF) Gut Receptor” (Biomolecules, 2021).

Columns and labels:
AeaABC-TMOF receptor [1] = experiment: Transport of AeaTMOF-FITC into E. coli cells expressing AeaABC-TMOF receptor in the presence of inhibitors; format: cell-based, Aedes aegypti; settings: NaAzide 100 μM, NaArsenate 20 mM, AeaTMOF-FITC 0.4 μM, 2 h, 37 °C; for effect on transport of AeaTMOF-FITC into E. coli cells (in words): Valinomycin 7 μM, DNP 27 μM; for inhibition of transport of AeaTMOF-FITC into E. coli cells: 5 × 10^5 cells, M9 medium, versus control cells, mean of 3
Experimental: To find out whether the transport into E. coli cells expressing the TMOF receptor is proton driven or depends on ATP hydrolysis, E. coli cells (5 × 10^5 cell) expressing the TMOF receptor were incubated in M9 medium (100 μL) with valinomysin (7 μM), DNP (27 μM), NaAzide (100 μM) and NaArsenate (20 mM) in the presence of AeaTMOF-FITC (0.4 μM) for 2 h at 37 °C. Control was run without the inhibitors. After incubation, the cells were washed 3× by centrifugation and the fluorescence was read after subtraction the initial background fluorescence of the medium and inhibitors without the AeaTMOF-FITC. The incubations were repeated 3 independent times and the results are expressed as means of 3 determinations ±SEM.

AeaABC-TMOF receptor [2] = experiment: Fluorescence microscopy of TMOF-FITC import into E. coli cells expressing AeaABC-TMOF receptor; format: cell-based, Aedes aegypti; settings: for fluorescence of cells / import (in words): overnight incubation, 10^8 cells expressing receptor, 37 °C, washed 3×
Experimental: Binding of TMOF-FITC to the AeaABC-TMOF receptor and its transport into the recombinant E. coli cells were observed using Leica DM6B microscope with Leica DFC 7000 T camera and 63× magnification using oil immersion lens. […] After incubation, the cells were washed 3× in PBS pH 7.2 (as in Section 2.6) and aliquots (10 μL) were spread on a glass slide then covered with a cover slip and a drop of oil was applied to the top of the cover slip, and the cells observed by fluorescence microscopy. Cells without a TMOF-receptor containing an empty plasmid were used as control.

E. coli SbmA− cells [3] = experiment: Nonspecific binding of TMOF-FITC to E. coli SbmA− cells with empty pTAC-MAT-2 plasmid
Experimental: (§1) Mid-log phase bacteria harboring TMOF-receptor were harvested, diluted and 0.5 μL (8 × 10^8 cells) were incubated in M9 medium (100 μL) pH 7.2 at 37 °C for 2 h in a shaker incubator in Eppendorf tubes with different concentrations of TMOF-FITC (0–0.4 μM) (specific activity = 25,396 fluorescence units/pmol) in the presence of TMOF (1 μmol) to reduce nonspecific binding of TMOF-FITC to the bacterial surface. After incubation, the cells were centrifuged at 14,000 rpm for 5 min at 4 °C, resuspended in PBS pH 7.2 (100 μL), vortexed, centrifuged, and the washing was repeated three times. After the last wash, the cells OD600nm and fluorescence were read in GloMax multidetector system using a blue filter (excitation at 490 nm and emission at 510–570 nm). The amount of TMOF-FITC that bound the TMOF-receptor was determined from a linear calibration curve after plotting different concentrations of TMOF-FITC against fluorescence units. […] The results are expressed as pmol/OD600 so the binding to the receptor is per equal number of E. coli cells. The kinetics of TMOF-FITC binding to its receptor was followed at different concentrations of TMOF-FITC using 5 repetitions per concentration, the data was then fitted by nonlinear regression using GraphPad Prism and the KD, Bmax and the affinity constant Kassoc determined. […]

AeaABC-TMOF receptor [4] = experiment: Binding of TMOF-FITC to AeaABC-TMOF receptor expressed in E. coli SbmA− cells; design: species or system Aedes aegypti; settings: for Kd: TMOF-FITC 0–0.4 μM, 8 × 10^8 E. coli SbmA− cells expressing receptor, M9 medium pH 7.2, 37 °C, fluorescence, corrected for nonspecific binding (13%), nonlinear regression, n = 5, ± SEM; for Bmax: as for KD, ± SEM; for affinity constant Kassoc: calculated from the binding kinetics
Experimental: Mid-log phase bacteria harboring TMOF-receptor were harvested, diluted and 0.5 μL (8 × 10^8 cells) were incubated in M9 medium (100 μL) pH 7.2 at 37 °C for 2 h in a shaker incubator in Eppendorf tubes with different concentrations of TMOF-FITC (0–0.4 μM) (specific activity = 25,396 fluorescence units/pmol) in the presence of TMOF (1 μmol) to reduce nonspecific binding of TMOF-FITC to the bacterial surface. After incubation, the cells were centrifuged at 14,000 rpm for 5 min at 4 °C, resuspended in PBS pH 7.2 (100 μL), vortexed, centrifuged, and the washing was repeated three times. After the last wash, the cells OD600nm and fluorescence were read in GloMax multidetector system using a blue filter (excitation at 490 nm and emission at 510–570 nm). The amount of TMOF-FITC that bound the TMOF-receptor was determined from a linear calibration curve after plotting different concentrations of TMOF-FITC against fluorescence units. […] After HPLC purification, the TFA ions were exchanged with phosphate ions. […] The results are expressed as pmol/OD600 so the binding to the receptor is per equal number of E. coli cells. The kinetics of TMOF-FITC binding to its receptor was followed at different concentrations of TMOF-FITC using 5 repetitions per concentration, the data was then fitted by nonlinear regression using GraphPad Prism and the KD, Bmax and the affinity constant Kassoc determined. The binding experiments were repeated 3 independent times.
Statistical analyses were determined using GraphPad Prism using two tailed Student’s t test and nonlinear regression. Results were considered significant when p < 0.05. […] Each experimental point is a mean of 3–5 determinations ± SEM.

E. coli SbmA− cells [5] = experiment: Fluorescence microscopy of E. coli cells with empty pTAC-MAT-2 plasmid incubated with TMOF-FITC; format: cell-based; settings: overnight incubation, 10^8 cells with empty plasmid, 37 °C, washed 3×
Experimental: Binding of TMOF-FITC to the AeaABC-TMOF receptor and its transport into the recombinant E. coli cells were observed using Leica DM6B microscope with Leica DFC 7000 T camera and 63× magnification using oil immersion lens. Mid-log E. coli cells (10^8 cells) expressing AeaABC-TMOF-receptor were incubated with TMOF-FITC (see Section 2.6) in M9 medium (100 μL) overnight at 37 °C. After incubation, the cells were washed 3× in PBS pH 7.2 (as in Section 2.6) and aliquots (10 μL) were spread on a glass slide then covered with a cover slip and a drop of oil was applied to the top of the cover slip, and the cells observed by fluorescence microscopy. Cells without a TMOF-receptor containing an empty plasmid were used as control.

E. coli SbmA+ cells = experiment: Binding of TMOF-FITC to E. coli SbmA+ cells with empty pTAC-MAT2 plasmid; settings: 8 × 10^8 cells, 2 h, 37 °C, M9 medium, mean of three
Experimental: as §1

TMOF gut receptor = settings: cited from earlier work
Description: To characterize the TMOF gut receptor, complementary decapeptides were used on Ae. aegypti gut membranes showing that the binding to the gut membrane is pH and temperature dependent. […] The specific TMOF receptor binding sites on female mosquito gut increased after the blood meal and they were visualized by immunochemistry staining. […] Our earlier studies also characterized a low affinity receptor [25] whereas in this study the affinity chromatography and SDS PAGE procedure that we used aimed to purify a high affinity TMOF receptor. It is possible that a second low affi ...

Question: For O=[N+]([O-])c1ccc(O)c([N+](=O)[O-])c1 [DNP, 2,4-dinirophenol], which “effect on transport of AeaTMOF-FITC into E. coli cells (in words)” value (AeaABC-TMOF receptor [1]) is on record?
Answer: did not stop the transport

Question: Which results are given for O=[As]([O-])([O-])O.[Na+].[Na+] [NaArsenate, sodium arsenate]?
Answer: inhibition of transport of AeaTMOF-FITC into E. coli cells (AeaABC-TMOF receptor [1]): 58%; effect on transport of AeaTMOF-FITC into E. coli cells (in words) (AeaABC-TMOF receptor [1]): inhibited

Question: Which results are given for [N-]=[N+]=[N-].[Na+] [NaAzide, sodium azide]?
Answer: inhibition of transport of AeaTMOF-FITC into E. coli cells (AeaABC-TMOF receptor [1]): 43%; effect on transport of AeaTMOF-FITC into E. coli cells (in words) (AeaABC-TMOF receptor [1]): inhibited

Question: For CC(C)[C@@H]1NC(=O)[C@H](C)OC(=O)[C@@H](C(C)C)NC(=O)[C@@H](C(C)C)OC(=O)[C@H](C(C)C)NC(=O)[C@H](C)OC(=O)[C@@H](C(C)C)NC(=O)[C@@H](C(C)C)OC(=O)[C@H](C(C)C)NC(=O)[C@H](C)OC(=O)[C@@H](C(C)C)NC(=O)[C@@H](C(C)C)OC1=O [Valinomycin], which “effect on transport of AeaTMOF-FITC into E. coli cells (in words)” value (AeaABC-TMOF receptor [1]) is on record?
Answer: did not stop the transport

Question: For H-YDPAPPPPPPK(FITC)K-OH [TMOF-FITC], which “fluorescence of cells / import (in words)” value (AeaABC-TMOF receptor [2]) is on record?
Answer: imports it into the bacterial cells

Question: And the “fluorescence of cells / import (in words)” value (AeaABC-TMOF receptor [2]; listed as AeaTMOF-FITC)?
Answer: highly fluoresce

Question: What about the “fluorescence of cells (in words)” value (AeaABC-TMOF receptor [2]; short time incubation (2 h), cells expressing receptor) of the same molecule?
Answer: did not fluoresce

Question: What about the nonspecific binding (E. coli SbmA− cells [3]; E. coli SbmA− cells with empty pTAC-MAT-2 plasmid, not expressing the receptor (bacterial cell wall)) of the same molecule?
Answer: 13%

Question: What about the AeaTMOF-FITC bound (E. coli SbmA− cells [3]; E. coli SbmA− cells, 8 × 10^8 cells, 2 h, 37 °C, M9 medium, mean of three) of the same molecule?
Answer: 4 pmol

Question: And the “fold more TMOF-FITC bound by receptor-expressing cells than by E. coli SbmA+” value (AeaABC-TMOF receptor [4]; 2 h, 37 °C, M9 medium, versus E. coli SbmA+ with empty plasmid, p = 0.0034)?
Answer: 3.7 fold

Question: What about the “fold more TMOF-FITC bound by receptor-expressing cells than by E. coli SbmA−” value (AeaABC-TMOF receptor [4]; 2 h, 37 °C, M9 medium, versus E. coli SbmA− with empty plasmid, p = 0.0018) of the same molecule?
Answer: 7.8 fold

Question: And the Kd (AeaABC-TMOF receptor [4]; 2 h)?
Answer: 114 ± 18 nM

Question: What about the Bmax (AeaABC-TMOF receptor [4]; per equal number of E. coli cells, n = 5) of the same molecule?
Answer: 28.7 ± 1.8 pmol/OD600

Question: And the “affinity constant Kassoc” value (AeaABC-TMOF receptor [4])?
Answer: 8.8e+06 M⁻¹

Question: What about the “fluorescence of cells (in words)” value (E. coli SbmA− cells [5]) of the same molecule?
Answer: did not fluoresce

Question: And the “fluorescence of cells (in words)” value (E. coli SbmA− cells [5]; listed as AeaTMOF-FITC)?
Answer: barely fluoresce

Question: What about the AeaTMOF-FITC bound (E. coli SbmA+ cells) of the same molecule?
Answer: 8.4 pmol

Question: For YDPAPPPPPP [TMOF], which Kd (AeaABC-TMOF receptor [4]; 2 h) is on record?
Answer: 114 ± 18 nM

Question: And the Bmax (AeaABC-TMOF receptor [4])?
Answer: 28.7 ± 1.8 pmol

Question: And the “affinity constant Kassoc” value (AeaABC-TMOF receptor [4])?
Answer: 8.8e+06 M⁻¹

Question: And the Bmax (TMOF gut receptor; gut membrane preparations)?
Answer: 0.1 pmol/gut

Question: And the Kassoc (TMOF gut receptor; gut membrane preparations)?
Answer: 2.2e+06 M⁻¹

Question: What about the Kd (TMOF gut receptor; low affinity binding site, gut membranes, complementary decapeptides, read-out: Kd2) of the same molecule?
Answer: 4430 nM
